Source: PubChem BioAssay AID1963432 (Molecular Pharmacology Branch, DTP, NCI, 2024)

Test system: SYO-1 complex spheroid growth, percent test/control
Test: Anticancer human tumor SYO-1 cell line growth inhibition [Asc];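 further: compound exposure lasted 7 days after spheroids grew 3 days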;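 on viability, T/C: 100% = DMSO vehicle control viability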
Conditions: for IC50: curve of first compound; for viability, T/C: stronger effect = lower value; active means viability on the fitted dose curve at most 10% of control; inactive means the rest
Experimental: Multicellular complex tumor spheroid response to apoptosis pathway targeting inhibitors Alrizomadlin, Pelcitoclax, and Dasminapant in combination with a variety of drugs and investigational agents in selected tumor cell lines
The MDM2 inhibitor alrizomadlin, the Bcl-2/Bcl-xL inhibitor pelcitoclax, and the IAPs inhibitor dasminapant were evaluated both individually and in combination with standard of care and investigational anticancer small molecules within a complex spheroid model of solid tumors. . Complex spheroids include a stromal component modeled by human endothelial cells (HUVEC) and fibroblasts modeled by human mesenchymal stem cells (MSCs). The concentration ranges selected for each drug and investigational agent were based upon clinically achievable concentrations if the clinical Cmax of the agent was known.
Compounds. The drugs and investigational agents: alrizomadlin (APG-115; NSC831270), pelcitoclax (APG-1252; NSC835773), dasminapant (APG-1387;NSC834197), TAK-243 (NSC785004), copanlisib (NSC809693), olaparib (NSC753686), talazoparib (NSC767125), cobimetinib (NSC 768068), eltanexor (KPT-8602, NSC 794443), abemaciclib (NSC 768073), sotorasib (NSC818433), adagrasib (NSC 831453), MRTX-1133 (NSC 836407), Iadademestat (ORY1001, NSC 806812), and RMC-4630 (NSC839698), were obtained from the NCI Developmental Therapeutics Program Chemical Repository. The FDA-approved anticancer drug set is available from the Developmental Therapeutics Program at https://dtp.cancer.gov/organization/dscb/obtaining/available plates.htm. […] The stock solutions were prepared in dimethyl sulfoxide (DMSO, Sigma-Aldrich, St. Louis, MO, cat. D2650) at 800-fold the tested concentration and stored at -70 degrees C prior to their use. All drugs and investigational agents were tested over a range starting from a high concentration at or near the clinical Cmax and decreasing in half-log increments. If the clinical Cmax for an agent had not been determined, the highest concentration tested was 10 microM.
The patient-derived cancer (PDC) cell lines include five colon adenocarcinomas: 186277-243-T-J2-PDC, 616215-338-R-J1-PDC, 439559-082-T-J2-PDC, 463943-066-T-J2-PDC, and 519858-162-T-J1-PDC; three pancreatic carcinomas: 323965-272-R-J2-PDC, 521955-158-R6-J3-PDC, and 521955-158-R2-J5-PDC; two uterine sarcomas: 327498-152-R-J2-PDC and 993429-296-R-J1-PDC; two rhabdomyosarcomas: 755483-174-R-J1-PDC and 772245-204-R-J1-PDC; two soft tissue sarcomas: 126254-015-R-J1-PDC and 494315-158-R-J1-PDC; two malignant fibrous histiocytomas: 317291-083-R-J1-PDC and 596521-263-R-J1-PDC; two breast carcinomas: 171881-019-R-J1-PDC and 885512-296-R-J2-PDC; and one ovarian carcinoma: 6556581-035-R-J-PDC were obtained from the NCI PDMR, (https://pdmr.cancer.gov). The established cell lines HSSY-2 synovial sarcoma (RRID:CVCL 8719), SYO-1 synovial sarcoma (RRID:CVCL_7146), MPNST malignant peripheral neural sheath tumor were obtained from the Sloan Kettering Institute. The following established cell lines were purchased from the American Type Culture Collection (ATCC, Manassas, VA), Sor the received from the NCI repository:, PANC-1 pancreatic carcinoma (CRL-1469, RRID:CVCL_0480), OVCAR-5 ovarian carcinoma (RRID:CVCL_1628), OVCAR-8 ovarian carcinoma (RRID:CVCL_1629), , MCF-7 breast carcinoma (CRL-12584, RRID:CVCL_0031), MDA-MB-231 breast carcinoma (CRL-12532, RRID:CVCL_0062), NCI-H1876 small cell lung carcinoma (CRL-5902, RRID:CVCL_1503), NCI-H510A small cell lung carcinoma (HTB-184, RRID:CVCL_1565), NCI-H1417 (CRL-5869, RRID:CVCL_1469), and NCI-H196 small cell lung carcinoma (CRL-5823, RRID:CVCL_1509). Dr. Peter Houghton (Greehey Children's Cancer Research Institute, University of Texas Health Science Center, San Antonio, TX) provided Rh-18 rhabdomyosarcoma (RRID:CVCL_1659). Pooled donor human umbilical vein endothelial cells (HUVEC, Lonza, cat. CC-2519) and human mesenchymal stem cells (hMSC, Lonza, cat. PT-2501) were purchased from Lonza (Walkersville, MD).
Cell Culture. […]

[1] = second compound 0.00949 µM, first compound 0.0316 µM
[2] = second compound 0.00949 µM, first compound 0.1 µM
[3] = second compound 0.03 µM, first compound 0.0316 µM
[4] = second compound 0.03 µM, first compound 0.1 µM
[5] = second compound 0.0949 µM, first compound 0.0316 µM
[6] = second compound 0.0949 µM, first compound 0.1 µM
[7] = second compound 0.3 µM, first compound 0.0316 µM
[8] = second compound 0.3 µM, first compound 0.1 µM
[9] = second compound 0.949 µM, first compound 0.0316 µM
[10] = second compound 0.949 µM, first compound 0.1 µM
[11] = second compound 3 µM, first compound 0.0316 µM
[12] = second compound 3 µM, first compound 0.1 µM

Cn1ncnc1[C@H]1c2n[nH]c(=O)c3cc(F)cc(c23)N[C@@H]1c1ccc(F)cc1 + CCN1C(C(=O)NC23CCC(C(=O)O)(CC2)CC3)C(c2cccc(Cl)c2F)C2(C(=O)Nc3cc(Cl)ccc32)C12CCCCC2
< 0.316 nM: IC50 (second compound 0.3 µM) | IC50 (second compound 0.949 µM) | IC50 (second compound 3 µM)
inactive: viability, T/C (second compound 0.00949 µM, first compound 0.000316 µM) 112% | viability, T/C (second compound 0.00949 µM, first compound 0.001 µM) 104% | viability, T/C (second compound 0.00949 µM, first compound 0.00316 µM) 96.2% | viability, T/C (second compound 0.00949 µM, first compound 0.01 µM) 78.7% | viability, T/C [1] 14.9% | viability, T/C (second compound 0.03 µM, first compound 0.000316 µM) 104% | viability, T/C (second compound 0.03 µM, first compound 0.001 µM) 98.2% | viability, T/C (second compound 0.03 µM, first compound 0.00316 µM) 87.5% | viability, T/C (second compound 0.03 µM, first compound 0.01 µM) 22.8% | viability, T/C (second compound 0.0949 µM, first compound 0.000316 µM) 90.8% | viability, T/C (second compound 0.0949 µM, first compound 0.001 µM) 66.6% | viability, T/C (second compound 0.0949 µM, first compound 0.00316 µM) 23.7% | viability, T/C (second compound 0.3 µM, first compound 0.000316 µM) 15.8% | viability, T/C (second compound 3 µM, first compound 0.000316 µM) 10.9%
1.56 nM: IC50 (second compound 0.0949 µM)
6.16 nM: IC50 (second compound 0.03 µM)
active: viability, T/C [2] 7.79% | viability, T/C [3] 6.44% | viability, T/C [4] 4.46% | viability, T/C (second compound 0.0949 µM, first compound 0.01 µM) 7.28% | viability, T/C [5] 6.03% | viability, T/C [6] 3.35% | viability, T/C (second compound 0.3 µM, first compound 0.001 µM) 9.59% | viability, T/C (second compound 0.3 µM, first compound 0.00316 µM) 5.54% | viability, T/C (second compound 0.3 µM, first compound 0.01 µM) 4.13% | viability, T/C [7] 2.99% | viability, T/C [8] 2.63% | viability, T/C (second compound 0.949 µM, first compound 0.000316 µM) 3.8% | viability, T/C (second compound 0.949 µM, first compound 0.001 µM) 2.11% | viability, T/C (second compound 0.949 µM, first compound 0.00316 µM) 2.99% | viability, T/C (second compound 0.949 µM, first compound 0.01 µM) 1.27% | viability, T/C [9] 1.77% | viability, T/C [10] 1.2% | viability, T/C (second compound 3 µM, first compound 0.001 µM) 1.49% | viability, T/C (second compound 3 µM, first compound 0.00316 µM) 2.04% | viability, T/C (second compound 3 µM, first compound 0.01 µM) 1.73% | viability, T/C [11] 1.53% | viability, T/C [12] 1.16%
16.8 nM: IC50 (second compound 0.00949 µM)

O=C(c1cc(Cc2n[nH]c(=O)c3ccccc23)ccc1F)N1CCN(C(=O)C2CC2)CC1 + CCN1C(C(=O)NC23CCC(C(=O)O)(CC2)CC3)C(c2cccc(Cl)c2F)C2(C(=O)Nc3cc(Cl)ccc32)C12CCCCC2
155 nM: IC50 (second compound 0.0949 µM)
< 31.6 nM: IC50 (second compound 0.3 µM) | IC50 (second compound 0.949 µM) | IC50 (second compound 3 µM)
active: viability, T/C (second compound 0.00949 µM, first compound 10 µM) 4.28% | viability, T/C (second compound 0.03 µM, first compound 3.16 µM) 6.53% | viability, T/C (second compound 0.03 µM, first compound 10 µM) 4.33% | viability, T/C (second compound 0.0949 µM, first compound 3.16 µM) 4.71% | viability, T/C (second compound 0.0949 µM, first compound 10 µM) 3.12% | viability, T/C [8] 9.34% | viability, T/C (second compound 0.3 µM, first compound 0.316 µM) 8.44% | viability, T/C (second compound 0.3 µM, first compound 1 µM) 4.25% | viability, T/C (second compound 0.3 µM, first compound 3.16 µM) 4.23% | viability, T/C (second compound 0.3 µM, first compound 10 µM) 2.9% | viability, T/C [9] 1.89% | viability, T/C [10] 1.57% | viability, T/C (second compound 0.949 µM, first compound 0.316 µM) 3.08% | viability, T/C (second compound 0.949 µM, first compound 1 µM) 2.92% | viability, T/C (second compound 0.949 µM, first compound 3.16 µM) 2.34% | viability, T/C (second compound 0.949 µM, first compound 10 µM) 1.51% | viability, T/C [11] 1.11% | viability, T/C [12] 1.24% | viability, T/C (second compound 3 µM, first compound 0.316 µM) 2.68% | viability, T/C (second compound 3 µM, first compound 1 µM) 1.1% | viability, T/C (second compound 3 µM, first compound 3.16 µM) 1.22% | viability, T/C (second compound 3 µM, first compound 10 µM) 1%
1130 nM: IC50 (second compound 0.03 µM)
inactive: viability, T/C [1] 104% | viability, T/C [2] 93.4% | viability, T/C (second compound 0.00949 µM, first compound 0.316 µM) 99.4% | viability, T/C (second compound 0.00949 µM, first compound 1 µM) 92% | viability, T/C (second compound 0.00949 µM, first compound 3.16 µM) 12.9% | viability, T/C [3] 102% | viability, T/C [4] 89.3% | viability, T/C (second compound 0.03 µM, first compound 0.316 µM) 92.4% | viability, T/C (second compound 0.03 µM, first compound 1 µM) 55.2% | viability, T/C [5] 71.7% | viability, T/C [6] 54.1% | viability, T/C (second compound 0.0949 µM, first compound 0.316 µM) 40.9% | viability, T/C (second compound 0.0949 µM, first compound 1 µM) 12.4% | viability, T/C [7] 9.88%
1840 nM: IC50 (second compound 0.00949 µM)
